Assay results from patent US20240376163A1, “PEPTIDE FOR INHIBITING CALCINEURIN AND USE THEREOF” (Seoul National University R&DB Foundation, priority 2023, published 2024).

System: Jurkat T cells
Assay: mRNA sequencing of activated Jurkat T cells
Type: cell-based, human
Settings: P + I

SMILES: C=CC[C@@H]1/C=C(\C)C[C@H](C)C[C@H](OC)[C@H]2O[C@@](O)(C(=O)C(=O)N3CCCC[C@H]3C(=O)O[C@H](/C(C)=C/[C@@H]3CC[C@@H](O)[C@H](OC)C3)[C@H](C)[C@@H](O)CC1=O)[C@H](C)C[C@@H]2OC [FK506, Tacrolimus, reference compound]
- MSMO1 FPKM (Jurkat T cells): 59.655 FPKM
- MT2A FPKM (Jurkat T cells): 369.658 FPKM
- MXD3 FPKM (Jurkat T cells): 17.861 FPKM
- MYB FPKM (Jurkat T cells): 58.524 FPKM
- MZB1 FPKM (Jurkat T cells): 22.015 FPKM
- N4BP3 FPKM (Jurkat T cells): 1.739 FPKM
- NAA16 FPKM (Jurkat T cells): 3.527 FPKM
- NCKAP1 FPKM (Jurkat T cells): 8.582 FPKM
- NCOA3 FPKM (Jurkat T cells): 9.949 FPKM
- NDRG1 FPKM (Jurkat T cells): 126.361 FPKM
- NDRG2 FPKM (Jurkat T cells): 2.881 FPKM
- NEDD9 FPKM (Jurkat T cells): 3.748 FPKM
- NFATC1 FPKM (Jurkat T cells): 3.793 FPKM
- NFKB1 FPKM (Jurkat T cells): 34.242 FPKM
- NFKB2 FPKM (Jurkat T cells): 49.22 FPKM
- NLRC3 FPKM (Jurkat T cells): 7.789 FPKM
- NME4 FPKM (Jurkat T cells): 16.395 FPKM
- NOTCH2 FPKM (Jurkat T cells): 10.308 FPKM
- NOTCH3 FPKM (Jurkat T cells): 0.902 FPKM
- NPDC1 FPKM (Jurkat T cells): 4.328 FPKM
- NR4A3 FPKM (Jurkat T cells): 1.927 FPKM
- NREP FPKM (Jurkat T cells): 9.925 FPKM
- NRP1 FPKM (Jurkat T cells): 14.572 FPKM
- NSG1 FPKM (Jurkat T cells): 4.302 FPKM
- NSMF FPKM (Jurkat T cells): 3.164 FPKM
- NT5E FPKM (Jurkat T cells): 8.91 FPKM
- NTRK1 FPKM (Jurkat T cells): 0.836 FPKM
- ODC1 FPKM (Jurkat T cells): 245.466 FPKM
- OPTN FPKM (Jurkat T cells): 12.958 FPKM
- OSBPL5 FPKM (Jurkat T cells): 3.354 FPKM
- PAM FPKM (Jurkat T cells): 1.483 FPKM
- PCNA-AS1 FPKM (Jurkat T cells): 70.937 FPKM
- PDCD1 FPKM (Jurkat T cells): 1.377 FPKM
- PDGFA FPKM (Jurkat T cells): 3.25 FPKM
- PDGFC FPKM (Jurkat T cells): 2.292 FPKM
- PDIA6 FPKM (Jurkat T cells): 123.669 FPKM
- PDLIM1 FPKM (Jurkat T cells): 6.874 FPKM
- PELI2 FPKM (Jurkat T cells): 11.262 FPKM
- PEX5L FPKM (Jurkat T cells): 1.428 FPKM
- PHACTR2 FPKM (Jurkat T cells): 2.927 FPKM
- PHLDB2 FPKM (Jurkat T cells): 3.898 FPKM
- PI16 FPKM (Jurkat T cells): 17.07 FPKM
- PKIG FPKM (Jurkat T cells): 12.411 FPKM
- PKM FPKM (Jurkat T cells): 1736.037 FPKM
- PLAC8 FPKM (Jurkat T cells): 3.158 FPKM
- PLEC FPKM (Jurkat T cells): 21.747 FPKM
- PLS3 FPKM (Jurkat T cells): 0.052 FPKM
- POTEE FPKM (Jurkat T cells): 1.42 FPKM
- POU2AF1 FPKM (Jurkat T cells): 2.274 FPKM
- POU2F2 FPKM (Jurkat T cells): 3.317 FPKM
- PPIF FPKM (Jurkat T cells): 50.291 FPKM
- PPP1R15A FPKM (Jurkat T cells): 77.478 FPKM
- PPP1R16B FPKM (Jurkat T cells): 29.659 FPKM
- PRDM8 FPKM (Jurkat T cells): 39.913 FPKM
- PRNP FPKM (Jurkat T cells): 39.685 FPKM
- PSMB10 FPKM (Jurkat T cells): 104.49 FPKM
- PTPN6 FPKM (Jurkat T cells): 20.906 FPKM
- PTPN7 FPKM (Jurkat T cells): 93.59 FPKM
- PXYLP1 FPKM (Jurkat T cells): 5.01 FPKM
- QPRT FPKM (Jurkat T cells): 13.402 FPKM
- RAB37 FPKM (Jurkat T cells): 2.455 FPKM
- RASGRP1 FPKM (Jurkat T cells): 4.464 FPKM
- RASGRP2 FPKM (Jurkat T cells): 3.002 FPKM
- RB1 FPKM (Jurkat T cells): 62.321 FPKM
- RCBTB2 FPKM (Jurkat T cells): 13.008 FPKM
- RCOR2 FPKM (Jurkat T cells): 1.361 FPKM
- RGS2 FPKM (Jurkat T cells): 3.365 FPKM
- RHOU FPKM (Jurkat T cells): 1.51 FPKM
- RNF19A FPKM (Jurkat T cells): 12.334 FPKM
- RNF212 FPKM (Jurkat T cells): 1.059 FPKM
- RORA FPKM (Jurkat T cells): 2.502 FPKM
- RRAS2 FPKM (Jurkat T cells): 18.257 FPKM
- RTN4R FPKM (Jurkat T cells): 2.449 FPKM
- RUNX1 FPKM (Jurkat T cells): 37.963 FPKM
- RUNX3 FPKM (Jurkat T cells): 23.624 FPKM
- SASH3 FPKM (Jurkat T cells): 59.349 FPKM
- SBK1 FPKM (Jurkat T cells): 9.239 FPKM
- SCG2 FPKM (Jurkat T cells): 159.394 FPKM
- SCHIP1 FPKM (Jurkat T cells): 1.535 FPKM
- SEPT3 FPKM (Jurkat T cells): 1.089 FPKM
- SEPT6 FPKM (Jurkat T cells): 55.091 FPKM
- SEPT9 FPKM (Jurkat T cells): 55.265 FPKM
- SERINC5 FPKM (Jurkat T cells): 3.184 FPKM
- SERPINB8 FPKM (Jurkat T cells): 23.788 FPKM
- SERPINE2 FPKM (Jurkat T cells): 3.936 FPKM
- SERTAD1 FPKM (Jurkat T cells): 16.162 FPKM
- SGK1 FPKM (Jurkat T cells): 76.683 FPKM
- SH2D1A FPKM (Jurkat T cells): 23.649 FPKM
- SH2D2A FPKM (Jurkat T cells): 20.658 FPKM
- SH3TC1 FPKM (Jurkat T cells): 1.562 FPKM
- SIVA1 FPKM (Jurkat T cells): 50.269 FPKM
- SLAMF1 FPKM (Jurkat T cells): 0.217 FPKM
- SLAMF7 FPKM (Jurkat T cells): 3.121 FPKM
- SLAMF8 FPKM (Jurkat T cells): 5.282 FPKM
- SLC22A1 FPKM (Jurkat T cells): 7.005 FPKM
- SLC27A2 FPKM (Jurkat T cells): 41.996 FPKM
- SLC29A4 FPKM (Jurkat T cells): 1.68 FPKM
- SLC35E4 FPKM (Jurkat T cells): 0.952 FPKM
- SLC35G2 FPKM (Jurkat T cells): 10.118 FPKM
- SMAD1 FPKM (Jurkat T cells): 4.873 FPKM
- SMOX FPKM (Jurkat T cells): 14.9 FPKM
- SMPD1 FPKM (Jurkat T cells): 20.599 FPKM
- SORBS1 FPKM (Jurkat T cells): 0.4 FPKM
- SOX4 FPKM (Jurkat T cells): 76.17 FPKM
- SPINT1 FPKM (Jurkat T cells): 1.948 FPKM
- SPRY1 FPKM (Jurkat T cells): 4.074 FPKM
- SPRY4 FPKM (Jurkat T cells): 9.613 FPKM
- SPSB1 FPKM (Jurkat T cells): 10.137 FPKM
- SPTBN2 FPKM (Jurkat T cells): 2.135 FPKM
- SRGN FPKM (Jurkat T cells): 10.812 FPKM
- SSBP2 FPKM (Jurkat T cells): 7.127 FPKM
- ST3GAL6 FPKM (Jurkat T cells): 4.018 FPKM
- STAT2 FPKM (Jurkat T cells): 37.805 FPKM
- STAT3 FPKM (Jurkat T cells): 83.385 FPKM
- STAU2 FPKM (Jurkat T cells): 7.124 FPKM
- STMN3 FPKM (Jurkat T cells): 10.423 FPKM
- STX1A FPKM (Jurkat T cells): 16.1 FPKM
- SYK FPKM (Jurkat T cells): 7.044 FPKM
- TAGAP FPKM (Jurkat T cells): 4.352 FPKM
- TAL1 FPKM (Jurkat T cells): 22.337 FPKM
- TAP2 FPKM (Jurkat T cells): 5.187 FPKM
- TAPBPL FPKM (Jurkat T cells): 19.59 FPKM
- TBC1D4 FPKM (Jurkat T cells): 12.549 FPKM
- TBC1D5 FPKM (Jurkat T cells): 4.088 FPKM
- TBKBP1 FPKM (Jurkat T cells): 16.894 FPKM
- TCF3 FPKM (Jurkat T cells): 39.165 FPKM
- TCF7 FPKM (Jurkat T cells): 13.065 FPKM
- TCF12 FPKM (Jurkat T cells): 34.798 FPKM
- TDRD9 FPKM (Jurkat T cells): 1.245 FPKM
- TGFBR2 FPKM (Jurkat T cells): 36.615 FPKM
- THEM6 FPKM (Jurkat T cells): 3.232 FPKM
- THEMIS FPKM (Jurkat T cells): 33.406 FPKM
- TIAF1 FPKM (Jurkat T cells): 12.479 FPKM
- TIAM1 FPKM (Jurkat T cells): 8.466 FPKM
- TIAM2 FPKM (Jurkat T cells): 0.27 FPKM
- TLE1 FPKM (Jurkat T cells): 1.864 FPKM
- TMCC3 FPKM (Jurkat T cells): 4.527 FPKM
- TNFAIP3 FPKM (Jurkat T cells): 25.168 FPKM
- TNFRSF10B FPKM (Jurkat T cells): 25.474 FPKM
- TNFSF10 FPKM (Jurkat T cells): 24.883 FPKM
- TNFSF14 FPKM (Jurkat T cells): 1.023 FPKM
- TPM4 FPKM (Jurkat T cells): 202.311 FPKM
- TPST2 FPKM (Jurkat T cells): 21.077 FPKM
- TRAF3IP3 FPKM (Jurkat T cells): 15.012 FPKM
- TRIB1 FPKM (Jurkat T cells): 5.422 FPKM
- TRIM21 FPKM (Jurkat T cells): 45.856 FPKM
- TTLL1 FPKM (Jurkat T cells): 3.69 FPKM
- UBE2L6 FPKM (Jurkat T cells): 164.565 FPKM
- UHRF1 FPKM (Jurkat T cells): 8.288 FPKM
- VAMP1 FPKM (Jurkat T cells): 14.793 FPKM
- VAT1 FPKM (Jurkat T cells): 44.696 FPKM
- VAV1 FPKM (Jurkat T cells): 30.218 FPKM
- WARS FPKM (Jurkat T cells): 105.541 FPKM
- WDR76 FPKM (Jurkat T cells): 8.368 FPKM
- XCL1 FPKM (Jurkat T cells): 0 FPKM
- XCL2 FPKM (Jurkat T cells): 0 FPKM
- XIRP1 FPKM (Jurkat T cells): 6.348 FPKM
- XRCC6BP1 FPKM (Jurkat T cells): 9.744 FPKM
- YPEL1 FPKM (Jurkat T cells): 5.628 FPKM
- ZFP36L1 FPKM (Jurkat T cells): 153.648 FPKM
- ZFP36L2 FPKM (Jurkat T cells): 13.343 FPKM
- ZNF280D FPKM (Jurkat T cells): 2.345 FPKM
- ZNF367 FPKM (Jurkat T cells): 2.354 FPKM
- ZNF480 FPKM (Jurkat T cells): 7.174 FPKM
- ZNF521 FPKM (Jurkat T cells): 2.011 FPKM
- ZNF652 FPKM (Jurkat T cells): 2.631 FPKM
- ZNF704 FPKM (Jurkat T cells): 0.014 FPKM
- ZNF827 FPKM (Jurkat T cells): 1.521 FPKM
- ZNFX1 FPKM (Jurkat T cells): 16.708 FPKM
- ZP4 FPKM (Jurkat T cells): 0.462 FPKM
- ZYX FPKM (Jurkat T cells): 127.794 FPKM
- ADORA2A FPKM: 0.998 FPKM
- AGK FPKM: 14.029 FPKM
- ARHGEF3 FPKM: 8.637 FPKM
- ASAP1 FPKM: 7.765 FPKM
- ATG14 FPKM: 7.863 FPKM
- ATP6V1B2 FPKM: 50.672 FPKM
- BCL2L1 FPKM: 39.402 FPKM
- C3 FPKM: 0.489 FPKM
- C10orf54 FPKM: 0.382 FPKM
- CABP1 FPKM: 1.201 FPKM
- CCDC64 FPKM: 10.044 FPKM
- CCL1 FPKM: 0 FPKM
- CCL3 FPKM: 0 FPKM
- CCL3L1 FPKM: 0 FPKM
- CCL3L3 FPKM: 0 FPKM
- CCL4 FPKM: 0 FPKM
- CCL4L1 FPKM: 0.087 FPKM
- CCL4L2 FPKM: 0.087 FPKM
- CCL20 FPKM: 0 FPKM
- CCND2 FPKM: 0.558 FPKM
- CD27-AS1 FPKM: 5.11 FPKM
- CD27 FPKM: 3.098 FPKM
- CD55 FPKM: 6.015 FPKM
- CD70 FPKM: 3.005 FPKM
- CD97 FPKM: 19.394 FPKM
- CD200 FPKM: 0 FPKM
- COL27A1 FPKM: 4.463 FPKM
- CREB5 FPKM: 0.577 FPKM
